Laboratory results as given in ChEMBL document CHEMBL5113461, “Improving the solubility and antileukemia activity of Wnt/β-catenin signaling inhibitors by disrupting molecular planarity” (Bioorg Med Chem, 2022).
Values after ≈ are worked out from the molar mass of the structure shown.

Tests used:
[1] = Aqueous solubility of the compound in PBS buffer at pH 7.4 incubated for 6 hrs by HPLC analysis; assay type: physicochemical; conditions: pH 7.4, 6 h
K562 [2] = test: cells; conditions: Homo sapiens, K562, 48 h
K562 [3] = test: Upregulation of axin-1 levels in human K562 cells by Western blot analysis; assay type: functional, cell-based; conditions: dose 0.1-10 µM, DDE = dose-dependent effect
K562 [4] = test: Downregulation of beta-catenin levels in human K562 cells by Western blot analysis; assay type: functional, cell-based; conditions: dose 0.1-10 µM, DDE = dose-dependent effect

Row | SMILES | solubility [1] [µg/mL] | IC50 (K562 [2]) [µM] | Activity (K562 [3]) | Activity (K562 [4])
1 | Cc1ccccc1-n1nnc(C(=O)Nc2ccc3ccccc3n2)c1C | 0.11 (≈ 0.32 µM) | > 50 |  | 
2 | Cc1c(C(=O)Nc2ccc3ccccc3n2)cnn1-c1ccccc1Br | 0.05 (≈ 0.123 µM) |  |  | 
3 | CCc1ccccc1-n1nc(C)c(C(=O)Nc2ccc3ccccc3n2)c1C | 5.2 (≈ 14 µM) |  | Dde | Dde
4 | Cc1ccccc1-n1nc(C)c(C(=O)Nc2ccc3ccccc3n2)c1C | 6.7 (≈ 18.8 µM) |  |  | 
5 | Cc1nn(-c2ccccc2Br)c(C)c1C(=O)Nc1ccc2ccccc2n1 | 5.9 (≈ 14 µM) |  |  | 
